In patent US6994986B2, “In vitro synthesis of polypeptides by optimizing amino acid metabolism” (The Board of Trustees of the Leland Stanford University, priority 1999, dated 2006):

Tests used:
E. coli S30 extract [1] = assay: Cell-free protein synthesis, pyruvate system (pyruvate / pyruvate oxidase ATP regeneration); format: biochemical, Escherichia coli
Method: (§1) Throughout the examples to follow, two standard methods were used for cell-free protein synthesis. The first uses phosphoenol pyruvate (PEP) and pyruvate kinase to regenerate ATP from ADP. This is termed the PEP system. The second uses pyruvate and pyruvate oxidase to regenerate ATP. This is called the pyruvate system.
T7 RNA polymerase was prepared from the culture of E. coli strain BL21 (pAR1219) according to the slightly modified procedures of Davanloo et al. (1984) Proc. Natl. Acad. Sci. U.S.A. 81: 2035–2039. S30 extract was prepared from wild type E. coli K12 (strain A19) according to the procedures reported earlier (Kim et al., supra.). The standard reaction mixture for the pyruvate system is nearly identical. […]
(§2) Reactions were conducted for given time periods in a water bath set at 37° C. The amount of synthesized protein was estimated from the measured cold TCA-insoluble radioactivities as described (Kim et al., supra.) Radioactivities of samples were measured in a liquid scintillation counter (Beckman). […]
(§3) The amount of synthesized protein was estimated from the measured TCA-insoluble radioactivities as described earlier (Kim et al., 1996a, supra.) Radioactivities of samples were measured in a liquid scintillation counter (Beckman LS3801). […]

E. coli S30 extract [2] = assay: Cell-free protein synthesis, PEP system (phosphoenol pyruvate / pyruvate kinase ATP regeneration); format: biochemical, Escherichia coli
Method: as §1
57 mM Hepes-KOH (pH 8.2), 1.2 mM ATP, 0.85 mM each of GTP, UTP and CTP, 1 mM DTT, 0.64 mM cAMP, 200 mM potassium glutamate, 80 mM NH4(OAc), 15 mM Mg(OAc)2, […] folinic acid, 6.7 μg/ml plasmid, 33 μg/ml T7 RNA polymerase, 500 μM each of 20 unlabeled amino acids, [^3H] leucine (0.27 GBq/mmol), 2% PEG 8000, 20 mM PEP (phosphoenol pyruvate), and 0.24 volumes of S30 extract. […]
as §2, §3

[3] = biological target: T1, phosphoenol pyruvate synthetase (pps) (Escherichia coli, UniProt P23538); assay: Aspartic acid/asparagine formation in the cell-free reaction mixture; format: biochemical, E. coli; settings: 2.7 mM oxalic acid; FIG. 6
T1 construct: endogenous in cells; host or cells: E. coli K12 strain A19, S30 cell extract
Method: (§4) The observations indicated in the previous examples prompted the measurement of individual amino acid concentrations during the course of a protein synthesis reaction. In this case, a pyruvate-driven reaction of 900 μl was started. Samples of 100 μl were taken each hour, diluted 1:1 with cold water and deproteinized by adding 200 μl of cold 10% TCA (trichloroacetic acid) solution. After centrifugation the supernatant was analyzed using a Beckman 1600 amino acid analyzer. […] This is a potentially serious source of reaction inefficiency. In the second case, the depletion of the three amino acids is most likely the reason that prolonging the reaction required amino acids addition.
The conversion of pyruvate to PEP is catalyzed by the enzyme, phosphoenol pyruvate synthetase (pps). Oxalic acid has been reported to inhibit pps. To test to see if the pps reaction is indeed responsible for aspartic acid and asparagine synthesis and to test if these reactions are reducing the protein yield, 2.7 mM oxalic acid was added to both the pyruvate system and the PEP system. […] With the pyruvate system, less pyruvate and ATP are being lost to amino acid formation. In the case with PEP as the energy source, pyruvate is the direct product after PEP transfers its phosphate to ADP. That pyruvate will then be converted back into PEP by pps, but at the cost of two ATP's for each new PEP molecule. […]

arginine decarboxylase = biological target: T2, arginine decarboxylase (Escherichia coli, UniProt P21170); assay: Arginine depletion in the cell-free reaction mixture (amino acid analysis); format: biochemical, E. coli; parameters: dose or concentration left out as unconfirmed; settings: spermidine; FIG. 5
T2 construct: endogenous in cells; host or cells: E. coli K12 strain A19, S30 cell extract
Method: as §4
The data shown in FIGS. 3 and 4 indicate that the degradation of three amino acids, arginine, cysteine and tryptophan is seriously limiting the efficiency and duration of the protein synthesis reaction. […] In the case of arginine, one possible cause is the action of arginine decarboxylase. This is the first enzyme in the pathway for the conversion of arginine to putrescine and spermidine, cationic molecules important for normal bacterial physiology. Putrescine and spermidine can also be produced from ornithine, but arginine is preferred when it is available. (See FIG. 10) Arginine decarboxylase is known to be feedback inhibited by spermidine. […]

acetate kinase = acetate kinase (Escherichia coli, UniProt P0A6A3); settings: read-out: Km value of acetate kinase for acetyl phosphate; cited from earlier work
Sequence of acetate kinase (P0A6A3 whole entry): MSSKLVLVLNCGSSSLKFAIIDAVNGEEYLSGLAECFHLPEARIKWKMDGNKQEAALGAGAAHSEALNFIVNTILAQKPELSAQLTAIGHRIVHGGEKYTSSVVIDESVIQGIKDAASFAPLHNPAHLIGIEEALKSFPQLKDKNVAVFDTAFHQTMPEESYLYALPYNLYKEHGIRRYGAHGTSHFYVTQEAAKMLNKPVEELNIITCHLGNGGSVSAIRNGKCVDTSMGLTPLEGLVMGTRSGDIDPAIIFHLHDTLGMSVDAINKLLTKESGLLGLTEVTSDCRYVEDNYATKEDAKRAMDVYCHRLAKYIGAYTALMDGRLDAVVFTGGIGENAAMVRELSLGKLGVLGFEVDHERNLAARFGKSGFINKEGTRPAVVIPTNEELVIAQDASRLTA

T2 sequence (P21170 whole entry): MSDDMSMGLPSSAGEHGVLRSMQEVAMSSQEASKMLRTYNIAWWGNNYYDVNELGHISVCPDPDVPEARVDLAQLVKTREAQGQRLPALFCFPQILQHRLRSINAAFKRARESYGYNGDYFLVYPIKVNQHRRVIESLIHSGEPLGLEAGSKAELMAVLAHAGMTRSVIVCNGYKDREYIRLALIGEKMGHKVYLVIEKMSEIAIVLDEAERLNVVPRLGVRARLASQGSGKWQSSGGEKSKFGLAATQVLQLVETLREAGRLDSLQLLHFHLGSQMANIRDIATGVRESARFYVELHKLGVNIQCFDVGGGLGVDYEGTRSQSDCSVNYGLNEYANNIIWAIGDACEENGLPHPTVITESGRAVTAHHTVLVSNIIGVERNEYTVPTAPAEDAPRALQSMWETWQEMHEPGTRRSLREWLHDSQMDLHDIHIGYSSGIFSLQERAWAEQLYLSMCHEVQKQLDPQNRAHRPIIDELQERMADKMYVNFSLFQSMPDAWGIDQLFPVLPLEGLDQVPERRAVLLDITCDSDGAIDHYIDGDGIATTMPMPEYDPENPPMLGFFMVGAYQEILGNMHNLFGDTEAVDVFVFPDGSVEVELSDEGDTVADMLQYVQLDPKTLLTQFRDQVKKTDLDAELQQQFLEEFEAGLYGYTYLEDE
T1 sequence (P23538 whole entry): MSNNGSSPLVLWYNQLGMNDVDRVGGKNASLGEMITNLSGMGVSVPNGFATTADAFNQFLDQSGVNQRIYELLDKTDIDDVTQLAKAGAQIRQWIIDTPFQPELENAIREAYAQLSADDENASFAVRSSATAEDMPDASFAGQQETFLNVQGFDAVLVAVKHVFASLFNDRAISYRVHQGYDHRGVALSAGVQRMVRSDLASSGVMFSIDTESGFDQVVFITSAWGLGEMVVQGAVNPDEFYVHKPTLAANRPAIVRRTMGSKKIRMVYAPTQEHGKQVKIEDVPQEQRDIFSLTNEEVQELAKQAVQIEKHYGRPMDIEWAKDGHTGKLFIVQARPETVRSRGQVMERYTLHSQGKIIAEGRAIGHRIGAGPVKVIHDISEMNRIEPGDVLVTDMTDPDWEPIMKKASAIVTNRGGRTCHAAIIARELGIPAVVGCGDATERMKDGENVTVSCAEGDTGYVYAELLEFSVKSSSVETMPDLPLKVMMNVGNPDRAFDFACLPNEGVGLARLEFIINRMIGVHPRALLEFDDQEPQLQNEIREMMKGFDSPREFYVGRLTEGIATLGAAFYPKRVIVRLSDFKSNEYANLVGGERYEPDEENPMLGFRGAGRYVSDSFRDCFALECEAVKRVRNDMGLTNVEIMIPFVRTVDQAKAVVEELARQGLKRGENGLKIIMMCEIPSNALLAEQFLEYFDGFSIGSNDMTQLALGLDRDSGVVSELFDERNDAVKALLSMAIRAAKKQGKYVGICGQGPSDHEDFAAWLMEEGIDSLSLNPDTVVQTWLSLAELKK

In the case of `O=C(O)C(=O)O` [oxalic acid], the protein yield (E. coli S30 extract [1]; 2.7 mM oxalic acid, pyruvate system, FIG. 7) is reported as “increases the protein yield”, the protein yield (E. coli S30 extract [2]; 2.7 mM oxalic acid, PEP system, FIG. 8) is reported as “increases the protein yield” and the “formation of aspartic acid and asparagine” value [3] is reported as “reduced”.
For `NCCCCNCCCN` [spermidine], the arginine depletion (arginine decarboxylase) was “significantly slow arginine depletion”.
With catalase the “effect on rate or duration of protein synthesis” value (E. coli S30 extract [1]; exogenous catalase added to the reaction mixture) was “did not affect either the rate or duration of protein synthesis”.
In the case of `CC(=O)OP(=O)(O)O` [acetyl phosphate], the Km (acetate kinase) is given as 200 µM and the “support of protein synthesis as energy source” value (E. coli S30 extract [2]; energy source in place of PEP) is given as “as efficiently as PEP”.
